Results from publication PMC4076210, “Discovery of Novel AKT Inhibitors with Enhanced Anti-Tumor Effects in Combination with the MEK Inhibitor” (PLoS ONE, 2014).
Like-named read-outs stand apart in the source and are kept apart here.

Legend:
Assay in all cases: Kinase panel
Type in all cases: biochemical
[1] = biological target: T1, DMPK(h) (Homo sapiens, UniProt Q09013)
T1 construct: purchased Millipore KinaseProfiler
T1 sequence (Q09013 1-629): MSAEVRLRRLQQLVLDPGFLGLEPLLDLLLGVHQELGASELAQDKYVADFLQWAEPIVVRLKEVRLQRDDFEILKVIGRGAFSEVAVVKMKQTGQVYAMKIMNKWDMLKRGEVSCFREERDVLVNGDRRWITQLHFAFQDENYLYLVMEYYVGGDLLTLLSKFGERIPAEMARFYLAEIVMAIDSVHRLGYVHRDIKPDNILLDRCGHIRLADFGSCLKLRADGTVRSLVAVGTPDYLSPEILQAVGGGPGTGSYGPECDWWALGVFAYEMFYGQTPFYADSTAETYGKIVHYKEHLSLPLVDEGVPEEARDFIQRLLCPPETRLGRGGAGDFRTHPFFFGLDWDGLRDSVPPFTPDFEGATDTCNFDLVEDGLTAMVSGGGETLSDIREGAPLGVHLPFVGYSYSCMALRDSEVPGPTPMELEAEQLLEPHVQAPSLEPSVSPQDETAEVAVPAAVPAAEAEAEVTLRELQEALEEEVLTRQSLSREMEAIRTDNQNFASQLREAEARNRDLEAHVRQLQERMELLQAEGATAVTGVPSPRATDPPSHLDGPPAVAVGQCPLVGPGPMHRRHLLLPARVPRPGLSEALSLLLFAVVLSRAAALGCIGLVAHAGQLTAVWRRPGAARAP

[2] = biological target: T2, Abl (Q252H) (h) (Homo sapiens, UniProt P00519, Q252H)
T2 construct: purchased Millipore KinaseProfiler

[3] = biological target: T3, ALK(h) (Homo sapiens, UniProt Q9UM73)
T3 construct: purchased Millipore KinaseProfiler

[4] = biological target: T4, PAK6(h) (Homo sapiens, UniProt Q9NQU5)
T4 construct: purchased Millipore KinaseProfiler

[5] = biological target: T5, Bmx(h) (Homo sapiens, UniProt P51813)
T5 construct: purchased Millipore KinaseProfiler
T5 sequence (P51813 1-675): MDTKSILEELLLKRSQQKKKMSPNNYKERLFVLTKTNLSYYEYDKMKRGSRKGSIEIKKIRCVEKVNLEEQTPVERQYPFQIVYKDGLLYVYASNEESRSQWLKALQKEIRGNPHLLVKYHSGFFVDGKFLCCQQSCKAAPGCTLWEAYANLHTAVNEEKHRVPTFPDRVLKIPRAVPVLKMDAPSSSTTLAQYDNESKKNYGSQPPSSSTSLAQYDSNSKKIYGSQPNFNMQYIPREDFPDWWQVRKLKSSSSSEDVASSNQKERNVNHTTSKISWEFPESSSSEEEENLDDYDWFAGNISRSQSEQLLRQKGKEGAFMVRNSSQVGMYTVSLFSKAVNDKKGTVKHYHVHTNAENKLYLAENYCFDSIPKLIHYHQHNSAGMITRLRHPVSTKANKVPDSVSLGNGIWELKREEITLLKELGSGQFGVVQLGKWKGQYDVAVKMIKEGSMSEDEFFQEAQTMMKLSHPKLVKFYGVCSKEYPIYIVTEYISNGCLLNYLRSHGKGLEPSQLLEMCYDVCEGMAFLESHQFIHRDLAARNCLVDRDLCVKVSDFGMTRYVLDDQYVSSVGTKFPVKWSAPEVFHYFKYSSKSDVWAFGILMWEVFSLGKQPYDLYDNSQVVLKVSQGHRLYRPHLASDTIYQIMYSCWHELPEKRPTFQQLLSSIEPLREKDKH

[6] = biological target: T6, CaMKI(h) (Homo sapiens, UniProt Q14012)
T6 construct: purchased Millipore KinaseProfiler

[7] = biological target: T7, Snk(h) (Homo sapiens, UniProt Q9NYY3)
T7 construct: purchased Millipore KinaseProfiler

[8] = biological target: T8, Abl(T315I)(h) (Homo sapiens, UniProt P00519, T315I)
T8 construct: purchased Millipore KinaseProfiler

[9] = biological target: T9, DYRK2(h) (Homo sapiens, UniProt Q92630)
T9 construct: purchased Millipore KinaseProfiler
T9 sequence (Q92630 1-601): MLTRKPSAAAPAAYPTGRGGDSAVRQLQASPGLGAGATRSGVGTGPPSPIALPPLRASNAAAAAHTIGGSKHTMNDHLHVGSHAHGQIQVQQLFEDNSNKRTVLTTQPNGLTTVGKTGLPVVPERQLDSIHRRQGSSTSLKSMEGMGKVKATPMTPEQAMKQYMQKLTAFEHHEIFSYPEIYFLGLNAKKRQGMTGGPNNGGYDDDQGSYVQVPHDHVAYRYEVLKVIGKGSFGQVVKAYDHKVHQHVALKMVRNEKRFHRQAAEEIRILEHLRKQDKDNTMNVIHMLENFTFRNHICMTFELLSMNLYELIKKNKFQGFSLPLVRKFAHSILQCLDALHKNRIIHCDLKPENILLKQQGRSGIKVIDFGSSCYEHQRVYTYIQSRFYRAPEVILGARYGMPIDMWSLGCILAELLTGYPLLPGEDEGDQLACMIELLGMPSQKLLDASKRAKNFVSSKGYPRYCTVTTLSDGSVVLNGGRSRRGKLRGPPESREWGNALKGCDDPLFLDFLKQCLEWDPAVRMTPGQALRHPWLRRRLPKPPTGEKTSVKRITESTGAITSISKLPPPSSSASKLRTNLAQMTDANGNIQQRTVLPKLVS

[10] = biological target: T10, GRK5(h) (Homo sapiens, UniProt P34947)
T10 construct: purchased Millipore KinaseProfiler

[11] = biological target: T11, Syk(h) (Homo sapiens, UniProt P43405)
T11 construct: purchased Millipore KinaseProfiler

[12] = biological target: T12, Rsk2(h) (Homo sapiens, UniProt P51812)
T12 construct: purchased Millipore KinaseProfiler

[13] = biological target: T13, FGFR2(h) (Homo sapiens, UniProt P21802)
T13 construct: purchased Millipore KinaseProfiler

[14] = biological target: T14, Rsk1(r) (Rattus norvegicus, UniProt Q63531)
T14 construct: purchased Millipore KinaseProfiler

[15] = biological target: T15, Pim-3(h) (Homo sapiens, UniProt Q86V86)
T15 construct: purchased Millipore KinaseProfiler

T10 sequence (P34947 whole entry): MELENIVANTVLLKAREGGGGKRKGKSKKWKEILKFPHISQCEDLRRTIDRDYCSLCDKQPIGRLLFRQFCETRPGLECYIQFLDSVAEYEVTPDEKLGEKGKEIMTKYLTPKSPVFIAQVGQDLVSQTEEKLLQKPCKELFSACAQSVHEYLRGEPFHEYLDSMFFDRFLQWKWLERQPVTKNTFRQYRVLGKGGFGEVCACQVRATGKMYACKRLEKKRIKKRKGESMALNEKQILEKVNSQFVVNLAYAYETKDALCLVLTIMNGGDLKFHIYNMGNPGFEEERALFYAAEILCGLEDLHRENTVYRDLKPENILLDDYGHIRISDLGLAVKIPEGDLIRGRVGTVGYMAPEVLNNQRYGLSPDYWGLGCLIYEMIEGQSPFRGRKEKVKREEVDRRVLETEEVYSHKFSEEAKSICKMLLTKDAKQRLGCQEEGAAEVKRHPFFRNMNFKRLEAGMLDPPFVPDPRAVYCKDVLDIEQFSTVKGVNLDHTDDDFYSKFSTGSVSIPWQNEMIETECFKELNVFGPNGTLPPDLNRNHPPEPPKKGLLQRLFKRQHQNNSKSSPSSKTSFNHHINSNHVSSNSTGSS
T14 sequence (Q63531 whole entry): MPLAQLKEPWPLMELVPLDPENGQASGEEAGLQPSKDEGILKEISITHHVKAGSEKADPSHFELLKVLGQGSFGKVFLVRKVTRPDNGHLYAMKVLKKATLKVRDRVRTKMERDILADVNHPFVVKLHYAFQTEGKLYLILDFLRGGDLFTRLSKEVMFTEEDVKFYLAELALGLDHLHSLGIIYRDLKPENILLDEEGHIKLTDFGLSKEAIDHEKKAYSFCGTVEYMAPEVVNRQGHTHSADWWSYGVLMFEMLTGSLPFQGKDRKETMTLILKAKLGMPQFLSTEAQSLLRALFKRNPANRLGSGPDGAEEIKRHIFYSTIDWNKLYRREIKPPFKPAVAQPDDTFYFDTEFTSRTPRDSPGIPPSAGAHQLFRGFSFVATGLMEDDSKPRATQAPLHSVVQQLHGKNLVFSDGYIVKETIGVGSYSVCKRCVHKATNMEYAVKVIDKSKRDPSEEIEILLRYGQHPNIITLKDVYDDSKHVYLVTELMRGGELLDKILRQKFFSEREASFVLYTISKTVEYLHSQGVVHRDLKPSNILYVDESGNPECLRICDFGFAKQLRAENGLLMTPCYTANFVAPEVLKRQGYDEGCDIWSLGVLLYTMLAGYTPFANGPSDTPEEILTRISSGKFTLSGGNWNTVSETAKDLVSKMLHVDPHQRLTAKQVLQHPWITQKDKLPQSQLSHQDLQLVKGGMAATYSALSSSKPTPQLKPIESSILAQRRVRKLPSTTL
T7 sequence (Q9NYY3 whole entry): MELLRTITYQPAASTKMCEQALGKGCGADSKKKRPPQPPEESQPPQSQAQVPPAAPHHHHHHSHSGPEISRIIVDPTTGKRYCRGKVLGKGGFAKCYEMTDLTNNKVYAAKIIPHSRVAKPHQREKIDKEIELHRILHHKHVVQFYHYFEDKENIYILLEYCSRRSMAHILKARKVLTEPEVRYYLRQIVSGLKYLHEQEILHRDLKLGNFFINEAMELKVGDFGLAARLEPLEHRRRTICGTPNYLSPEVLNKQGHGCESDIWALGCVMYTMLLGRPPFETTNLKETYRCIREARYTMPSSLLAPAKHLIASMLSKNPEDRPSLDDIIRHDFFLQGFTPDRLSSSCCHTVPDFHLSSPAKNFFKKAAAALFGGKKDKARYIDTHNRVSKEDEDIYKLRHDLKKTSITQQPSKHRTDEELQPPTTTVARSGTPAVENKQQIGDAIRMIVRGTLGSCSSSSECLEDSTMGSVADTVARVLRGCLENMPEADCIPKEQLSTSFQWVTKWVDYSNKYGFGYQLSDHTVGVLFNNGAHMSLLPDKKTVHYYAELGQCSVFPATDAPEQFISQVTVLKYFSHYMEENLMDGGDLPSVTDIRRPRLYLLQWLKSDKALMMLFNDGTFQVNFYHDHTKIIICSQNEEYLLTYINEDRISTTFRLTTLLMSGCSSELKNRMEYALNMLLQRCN
T3 sequence (Q9UM73 19-1620): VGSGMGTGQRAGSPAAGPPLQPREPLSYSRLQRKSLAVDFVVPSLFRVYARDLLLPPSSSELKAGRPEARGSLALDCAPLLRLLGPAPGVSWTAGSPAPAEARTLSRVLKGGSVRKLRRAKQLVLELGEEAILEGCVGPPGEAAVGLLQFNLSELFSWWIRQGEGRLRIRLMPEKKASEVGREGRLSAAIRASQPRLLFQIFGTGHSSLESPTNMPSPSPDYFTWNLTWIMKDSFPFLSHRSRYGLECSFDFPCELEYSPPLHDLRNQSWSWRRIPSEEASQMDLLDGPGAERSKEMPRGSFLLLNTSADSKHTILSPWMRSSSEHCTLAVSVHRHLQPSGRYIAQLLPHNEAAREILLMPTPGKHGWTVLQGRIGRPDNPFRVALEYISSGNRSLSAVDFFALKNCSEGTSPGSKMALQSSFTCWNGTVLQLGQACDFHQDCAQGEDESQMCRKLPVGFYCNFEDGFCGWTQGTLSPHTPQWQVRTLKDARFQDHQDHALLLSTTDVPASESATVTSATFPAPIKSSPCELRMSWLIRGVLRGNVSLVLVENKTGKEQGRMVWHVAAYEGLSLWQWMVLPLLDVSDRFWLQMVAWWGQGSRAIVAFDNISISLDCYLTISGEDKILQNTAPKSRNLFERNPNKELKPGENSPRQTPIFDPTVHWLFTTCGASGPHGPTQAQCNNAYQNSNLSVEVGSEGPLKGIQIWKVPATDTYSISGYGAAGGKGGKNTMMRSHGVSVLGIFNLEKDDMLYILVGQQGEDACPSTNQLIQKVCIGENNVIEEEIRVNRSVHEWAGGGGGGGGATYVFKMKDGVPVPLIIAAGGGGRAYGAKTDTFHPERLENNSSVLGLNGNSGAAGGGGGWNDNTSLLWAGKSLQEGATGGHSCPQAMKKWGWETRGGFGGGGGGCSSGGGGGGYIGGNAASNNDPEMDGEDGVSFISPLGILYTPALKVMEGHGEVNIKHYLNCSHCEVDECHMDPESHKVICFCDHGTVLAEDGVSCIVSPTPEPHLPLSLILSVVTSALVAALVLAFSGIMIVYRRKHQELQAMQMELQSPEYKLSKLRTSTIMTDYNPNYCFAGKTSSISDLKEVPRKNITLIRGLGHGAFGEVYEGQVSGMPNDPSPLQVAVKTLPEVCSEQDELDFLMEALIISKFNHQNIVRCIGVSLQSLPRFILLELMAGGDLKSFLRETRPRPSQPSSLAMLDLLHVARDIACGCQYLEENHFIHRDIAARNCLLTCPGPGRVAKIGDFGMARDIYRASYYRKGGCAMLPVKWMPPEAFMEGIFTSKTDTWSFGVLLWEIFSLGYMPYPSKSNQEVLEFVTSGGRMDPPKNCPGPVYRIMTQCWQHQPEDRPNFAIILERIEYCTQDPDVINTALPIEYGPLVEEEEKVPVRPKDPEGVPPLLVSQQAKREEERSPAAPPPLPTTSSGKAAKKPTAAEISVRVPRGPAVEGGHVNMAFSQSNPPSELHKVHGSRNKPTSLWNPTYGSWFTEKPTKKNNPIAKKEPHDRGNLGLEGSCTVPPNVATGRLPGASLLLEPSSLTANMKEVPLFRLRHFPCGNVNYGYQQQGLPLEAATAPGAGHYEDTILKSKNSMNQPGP
T12 sequence (P51812 whole entry): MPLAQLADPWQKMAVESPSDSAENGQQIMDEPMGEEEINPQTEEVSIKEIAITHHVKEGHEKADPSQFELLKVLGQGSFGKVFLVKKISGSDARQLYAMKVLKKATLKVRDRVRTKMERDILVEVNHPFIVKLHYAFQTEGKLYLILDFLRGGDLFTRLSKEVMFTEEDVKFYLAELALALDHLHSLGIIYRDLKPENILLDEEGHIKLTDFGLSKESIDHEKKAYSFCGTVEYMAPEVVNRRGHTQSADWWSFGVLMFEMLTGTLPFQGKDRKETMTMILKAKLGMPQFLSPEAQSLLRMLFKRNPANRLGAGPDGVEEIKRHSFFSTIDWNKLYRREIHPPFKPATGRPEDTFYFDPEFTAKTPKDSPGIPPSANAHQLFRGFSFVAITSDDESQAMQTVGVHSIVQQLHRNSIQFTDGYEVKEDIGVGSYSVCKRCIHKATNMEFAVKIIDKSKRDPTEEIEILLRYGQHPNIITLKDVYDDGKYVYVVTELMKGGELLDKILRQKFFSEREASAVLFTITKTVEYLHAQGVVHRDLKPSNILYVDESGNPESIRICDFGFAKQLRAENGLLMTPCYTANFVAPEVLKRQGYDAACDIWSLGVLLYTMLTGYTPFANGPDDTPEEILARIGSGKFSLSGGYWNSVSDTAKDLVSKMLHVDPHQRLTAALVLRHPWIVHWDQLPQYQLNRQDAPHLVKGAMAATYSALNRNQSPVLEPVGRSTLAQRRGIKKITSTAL
T6 sequence (Q14012 whole entry): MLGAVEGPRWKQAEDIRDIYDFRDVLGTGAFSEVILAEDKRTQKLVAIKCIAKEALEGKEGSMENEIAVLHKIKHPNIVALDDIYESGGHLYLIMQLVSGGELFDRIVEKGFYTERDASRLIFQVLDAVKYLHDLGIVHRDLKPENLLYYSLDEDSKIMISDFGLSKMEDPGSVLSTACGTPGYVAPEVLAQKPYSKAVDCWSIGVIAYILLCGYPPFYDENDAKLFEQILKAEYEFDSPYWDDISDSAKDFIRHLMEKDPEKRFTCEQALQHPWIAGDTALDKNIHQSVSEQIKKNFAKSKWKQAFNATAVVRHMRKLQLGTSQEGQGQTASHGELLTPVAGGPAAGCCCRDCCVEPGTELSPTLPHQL

SMILES: Cn1ncc(Cl)c1-c1cc(C(=O)N[C@H](CN)Cc2cccc(F)c2)sc1Cl [GSK2110183]
- inhibition at 0.5 µM [1]: -8%
- inhibition at 10 µM [1]: 1%
- inhibition at 0.5 µM [2]: 6%
- inhibition at 10 µM [2]: 11%
- inhibition at 0.5 µM [3]: -22%
- inhibition at 10 µM [3]: 0%
- inhibition at 0.5 µM [4]: 13%
- inhibition at 10 µM [4]: 73%
- inhibition at 0.5 µM [5]: -2%
- inhibition at 10 µM [5]: 18%
- inhibition at 0.5 µM [6]: 3%
- inhibition at 10 µM [6]: 24%
- inhibition at 0.5 µM [7]: -8%
- inhibition at 10 µM [7]: 18%
- inhibition at 0.5 µM [8]: -1%
- inhibition at 10 µM [8]: 6%
- inhibition at 0.5 µM [9]: 2%
- inhibition at 10 µM [9]: 24%
- inhibition at 0.5 µM [10]: -8%
- inhibition at 10 µM [10]: -1%
- inhibition at 0.5 µM [11]: 3%
- inhibition at 10 µM [11]: 39%
- inhibition at 0.5 µM [12]: 63%
- inhibition at 10 µM [12]: 97%
- inhibition at 0.5 µM [13]: 0%
- inhibition at 10 µM [13]: -2%
- inhibition at 0.5 µM [14]: 24%
- inhibition at 10 µM [14]: 89%
- inhibition at 0.5 µM [15]: -25%
- inhibition at 10 µM [15]: -13%

SMILES: Cn1ncc(Cl)c1-c1cc(C(=O)N[C@H](CN)Cc2ccc(F)c(F)c2)oc1Cl [GSK2141795]
- inhibition at 0.5 µM ([1]; 0.5 µM, read-out: % Inhibition): -12%
- inhibition at 10 µM ([1]; 10 µM, read-out: % Inhibition): -5%
- inhibition at 0.5 µM ([2]; 0.5 µM, read-out: % Inhibition): -1%
- inhibition at 10 µM ([2]; 10 µM, read-out: % Inhibition): 3%
- inhibition at 0.5 µM ([3]; 0.5 µM, read-out: % Inhibition): -8%
- inhibition at 10 µM ([3]; 10 µM, read-out: % Inhibition): -4%
- inhibition at 0.5 µM ([4]; 0.5 µM, read-out: % Inhibition): 11%
- inhibition at 10 µM ([4]; 10 µM, read-out: % Inhibition): 64%
- inhibition at 0.5 µM ([5]; 0.5 µM, read-out: % Inhibition): -6%
- inhibition at 10 µM ([5]; 10 µM, read-out: % Inhibition): 21%
- inhibition at 0.5 µM ([6]; 0.5 µM, read-out: % Inhibition): -30%
- inhibition at 10 µM ([6]; 10 µM, read-out: % Inhibition): 16%
- inhibition at 0.5 µM ([7]; 0.5 µM, read-out: % Inhibition): -12%
- inhibition at 10 µM ([7]; 10 µM, read-out: % Inhibition): 15%
- inhibition at 0.5 µM ([8]; 0.5 µM, read-out: % Inhibition): -2%
- inhibition at 10 µM ([8]; 10 µM, read-out: % Inhibition): -2%
- inhibition at 0.5 µM ([9]; 0.5 µM, read-out: % Inhibition): 16%
- inhibition at 10 µM ([9]; 10 µM, read-out: % Inhibition): 64%
- inhibition at 0.5 µM ([10]; 0.5 µM, read-out: % Inhibition): 4%
- inhibition at 10 µM ([10]; 10 µM, read-out: % Inhibition): 43%
- inhibition at 0.5 µM ([11]; 0.5 µM, read-out: % Inhibition): -18%
- inhibition at 10 µM ([11]; 10 µM, read-out: % Inhibition): 35%
- inhibition at 0.5 µM ([12]; 0.5 µM, read-out: % Inhibition): 73%
- inhibition at 10 µM ([12]; 10 µM, read-out: % Inhibition): 100%
- inhibition at 0.5 µM ([13]; 0.5 µM, read-out: % Inhibition): -8%
- inhibition at 10 µM ([13]; 10 µM, read-out: % Inhibition): 2%
- inhibition at 0.5 µM ([14]; 0.5 µM, read-out: % Inhibition): 57%
- inhibition at 10 µM ([14]; 10 µM, read-out: % Inhibition): 95%
- inhibition at 0.5 µM ([15]; 0.5 µM, read-out: % Inhibition): -10%
- inhibition at 10 µM ([15]; 10 µM, read-out: % Inhibition): -4%
